{"source": "patent US11274332B2", "about": "“Methods of administering 3,4-diaminopyridine” (SERB SA, priority 2011, dated 2022)", "tested_on": "rat hepatocytes", "test": "In vitro metabolism of 14C-amifampridine in rat hepatocytes (Example 1)", "assay_type": "in vitro ADME", "method": "The objective of this hepatocyte study was to determine the extent of metabolism, complete metabolic profile and metabolite characterization of amifampridine phosphate in several species with ^14C-amifampridine phosphate for a cross species comparison. The following procedures were used to study the metabolism in rat (Example 1), dog (Example 2), and human hepatocytes (Example 3).\nThe cryopreserved hepatocytes were removed from storage, quickly thawed in a 37° C. water bath for 1 to 2 min, and transferred to a 50 ml tube containing pre-warmed InVitroGRO HT medium (Celsis Inc., Baltimore). The cell suspension was mixed by gentle inversion and the cells were pelleted by centrifugation at 50 to 75×g for 5 min. The supernatant medium was removed and the cells were resuspended in Williams' Medium E. Hepatocyte viability was assessed by using trypan blue exclusion. Hepatocyte density was determined by counting cells with a hemocytometer and the density was adjusted with Williams' Medium E to achieve a final density of 1,000,000 cells/mL. […] The supernatant medium was removed and the cells were resuspended in cold Williams' Medium E. The cell density was then determined using a hemocytometer and the density was adjusted with Williams' Medium E to achieve a final density of 1,000,000 cells/mL. […]"}
{"compound": "Nc1ccncc1N", "note": "[3,4-DAP, 3,4-diaminopyridine]", "values": [{"measurement": "formation of single major acetylated amifampridine metabolite", "value": "extensive"}]}
